According to patent publication US20200397796A1, “METHODS OF TREATMENT OF CANCER COMPRISING CHK1 INHIBITORS” (SIERRA ONCOLOGY, INC., priority 2018, published 2020):

Experiments:
Single dose PK, dog = type: in vivo
Protocol: The PK of SRA737 have been determined in the mouse, rat, dog and monkey following oral and IV administration (Table 3). […] An acceptable terminal elimination t1/2 was also observed in each species. […] The plasma protein binding of SRA737 at 1 and 10 μM was examined in mouse, minipig, monkey and human plasma using ultracentrifugation and in dog plasma (10 μM) using rapid equilibrium dialysis.

[1] = Phase 1 clinical trial, SRA737 in combination with gemcitabine dose escalation; type: in vivo, human; conditions: for AUC(0-t) / Cmax / Tmax / half-life: human, plasma, oral, mean
Protocol: A Phase 1 clinical trial was conducted in ‘all corners,’ i.e. no genetic selection was performed, to establish safety, tolerability and pharmacokinetics for SRA737 administered in combination with gemcitabine (“Dose Escalation Phase”). Cohorts consisting initially of a single subject received escalating doses of SRA737, starting in Cohort 1 with 40 mg/day administered orally on days 2, 3, 9, 10, 16, and 17 of each 28-day cycle. Cohorts also received various doses of gemcitabine, starting in Cohort 1 with 300 mg/m^2/day administered IV over 30 minutes on days 1, 8, and 15 of each 28-day cycle.
FIG. 3 presents a summary of dosing amounts for the cohorts tested. In the Dose Escalation Phase, a total of 55 subjects received SRA737 in 13 dose escalation cohorts at doses of 40 to 600 mg SRA737 combined with LDG doses of 50 to 300 mg/m^2.
At this dose, the Cmin (52 ng/mL) exceeded that determined in preclinical models to be effective.
Additional cohorts are monitored escalating the dose of SRA737 until the maximum tolerated dose (MTD) is identified and to optimize combination dosing with gemcitabine. All enrolled subjects who receive at least 1 dose of SRA737 and provide at least 1 evaluable PK concentration or have evaluable data for each specific PDn assessment are evaluable for PK and PDn, respectively. Serious adverse events (SAEs) are collected starting on the date of informed consent. Radiological assessment are performed within 4 weeks from the first dose of SRA737 (or gemcitabine if the SRA737 dose for PK is omitted) and repeated every 6 weeks in Stage 1. In Stage 2, assessments are performed every 8 weeks and in long-term follow-up every 16 weeks. Assessments are performed more frequently, when clinically indicated. Cardiac assessments (echocardiogram [ECHO] and electrocardiogram [ECG]) are be conducted. Optional triplet tumor biopsies in some cases are collected within 28 days prior to receiving the first SRA737 dose. Within 7 days of the first dose of SRA737 (or gemcitabine if the SRA737 dose for PK is omitted), the following assessments are completed: complete physical examination, clinical disease assessment, SAE and concomitant medication, WHO performance status and local laboratory assessment of blood (for hematology, biochemistry, and pregnancy testing). At the single-dose PK run-in on Day −7 to Day −4 visit, concomitant medication, vital signs (including temperature, blood pressure, and pulse), height, weight, body surface area (BSA), and WHO performance status are collected. Blood samples are obtained predose for hematology, biochemistry, pregnancy testing, troponin I or T, as well as for tumor markers and tumor profiling. Adverse events (AEs) are collected starting at the administration of SRA737. Archival tissue is submitted for tumor profiling. PK samples are collected at up to 10 time points over a 48-hour time period on Day −7 to −4 (first dose of SRA737 for PK). The sponsor in some cases reduces the requirement for PK sampling, including modification or elimination of the Day −7 to Day −4 visit once sufficient data to evaluate the single-dose PK of SRA737 have been collected and analyzed. […]

Chk1 = biological target: T1, Chk1 (Homo sapiens, UniProt O14757); conditions: limited off-target activity against other kinases; Walton et al.; cited from earlier work
T1 construct: endogenous in cells
T1 sequence (O14757 1-476): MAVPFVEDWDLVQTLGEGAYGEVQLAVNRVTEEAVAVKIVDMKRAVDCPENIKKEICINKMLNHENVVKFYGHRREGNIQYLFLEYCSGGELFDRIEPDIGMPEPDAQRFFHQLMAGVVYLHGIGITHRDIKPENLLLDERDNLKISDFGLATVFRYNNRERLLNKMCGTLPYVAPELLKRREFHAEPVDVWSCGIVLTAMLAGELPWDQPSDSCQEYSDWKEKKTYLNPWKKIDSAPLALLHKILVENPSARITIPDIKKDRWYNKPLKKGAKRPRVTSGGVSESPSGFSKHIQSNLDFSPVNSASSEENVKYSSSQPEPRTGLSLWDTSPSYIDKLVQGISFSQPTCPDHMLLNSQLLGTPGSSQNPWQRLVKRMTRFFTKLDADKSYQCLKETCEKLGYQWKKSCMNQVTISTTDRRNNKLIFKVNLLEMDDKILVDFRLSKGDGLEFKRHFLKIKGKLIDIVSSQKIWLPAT

[2] = in vivo, Dog IV 1 mg/kg single dose
[3] = in vivo, Dog oral 5 mg/kg single dose

In the case of `N#Cc1cnc(Nc2cc(NCC3CNCCO3)c(C(F)(F)F)cn2)cn1` (stereo not drawn) [SRA737, 5-[[4-[[morpholin-2-yl]methylamino]-5-(trifluoromethyl)-2-pyridyl]amino]pyrazine-2-carbonitrile], the Foral (Single dose PK, dog; Dog oral 5 mg/kg single dose) was 86%, the AUC(0-t) (Single dose PK, dog; [2]) was 200 ng·h/mL and the half-life (Single dose PK, dog; [2]) was 2.8 h. For the same molecule, the AUC(0-t) (Single dose PK, dog; [3]) was 850 ng·h/mL, the Cmax (Single dose PK, dog; [3]) was 130 ng/mL and the Tmax (Single dose PK, dog; [3]) was 1 to 3 h. The half-life (Single dose PK, dog; [3]) was 3.5 h, the Cmin ([1]; 150 mg SRA737) was 52 ng/mL and the “dose limiting toxicities (DLTs)” value ([1]; 40 to 600 mg SRA737 combined with gemcitabine 50 to 300 mg/m^2) was “No protocol-defined dose limiting toxicities”. The AUC(0-t) ([1]; 20 mg, Day −7, n = 8-10, read-out: AUC0-12) was 145 ng·h/mL, the Cmax ([1]; 40 mg, Day 10, n = 4) was 117 ng/mL and the Tmax ([1]; 40 mg, Day 10, n = 4) was 1.8 h. For the same molecule, the AUC(0-t) ([1]; 40 mg, Day 10, n = 4, read-out: AUC0-12) was 543 ng·h/mL, the Cmax ([1]; 40 mg, Day −7, n = 6) was 106 ng/mL and the Tmax ([1]; 40 mg, Day −7, n = 6) was 2 h. The AUC(0-t) ([1]; 40 mg, Day −7, n = 6, read-out: AUC0-12) was 486 ng·h/mL, the AUC(0-t) ([1]; 40 mg, Day −7, n = 6, read-out: AUC0-24) was 637 ng·h/mL and the Cmax ([1]; 80 mg, Day 10, n = 3) was 113 ng/mL. For the same molecule, the Tmax ([1]; 80 mg, Day 10, n = 3) was 2 h, the AUC(0-t) ([1]; 80 mg, Day 10, n = 3, read-out: AUC0-12) was 570 ng·h/mL and the Cmax ([1]; 80 mg, Day −7, n = 3) was 146 ng/mL. The Tmax ([1]; 80 mg, Day −7, n = 3) was 2 h, the AUC(0-t) ([1]; 80 mg, Day −7, n = 3, read-out: AUC0-12) was 641 ng·h/mL and the AUC(0-t) ([1]; 80 mg, Day −7, n = 3, read-out: AUC0-24) was 825 ng·h/mL. The Cmax ([1]; 150 mg, Day 10, n = 3) was 331 ng/mL, the Tmax ([1]; 150 mg, Day 10, n = 3) was 1.5 h and the AUC(0-t) ([1]; 150 mg, Day 10, n = 3, read-out: AUC0-12) was 1680 ng·h/mL. For the same molecule, the Cmax ([1]; 150 mg, Day −7, n = 4) was 548 ng/mL, the Tmax ([1]; 150 mg, Day −7, n = 4) was 1.8 h and the AUC(0-t) ([1]; 150 mg, Day −7, n = 4, read-out: AUC0-12) was 2630 ng·h/mL. The AUC(0-t) ([1]; 150 mg, Day −7, n = 4, read-out: AUC0-24) was 3550 ng·h/mL, the Cmax ([1]; 300 mg, Day 10, n = 7) was 1080 ng/mL and the Tmax ([1]; 300 mg, Day 10, n = 7) was 1.7 h. The AUC(0-t) ([1]; 300 mg, Day 10, n = 7, read-out: AUC0-12) was 5140 ng·h/mL, the Cmax ([1]; 300 mg, Day −7, n = 7) was 995 ng/mL and the Tmax ([1]; 300 mg, Day −7, n = 7) was 2.4 h. For the same molecule, the AUC(0-t) ([1]; 300 mg, Day −7, n = 7, read-out: AUC0-12) was 4530 ng·h/mL, the AUC(0-t) ([1]; 300 mg, Day −7, n = 7, read-out: AUC0-24) was 5910 ng·h/mL and the Cmax ([1]; 500 mg, Day 10, n = 19-22) was 1720 ng/mL. The Tmax ([1]; 500 mg, Day 10, n = 19-22) was 2.4 h, the AUC(0-t) ([1]; 500 mg, Day 10, n = 19-22, read-out: AUC0-12) was 10200 ng·h/mL and the Cmax ([1]; 500 mg, Day −7, n = 29) was 1430 ng/mL. The Tmax ([1]; 500 mg, Day −7, n = 29) was 2.4 h, the AUC(0-t) ([1]; 500 mg, Day −7, n = 29, read-out: AUC0-12) was 8320 ng·h/mL and the AUC(0-t) ([1]; 500 mg, Day −7, n = 29, read-out: AUC0-24) was 11400 ng·h/mL. For the same molecule, the Cmax ([1]; 600 mg, Day 10, n = 4) was 2110 ng/mL, the Tmax ([1]; 600 mg, Day 10, n = 4) was 2.5 h and the AUC(0-t) ([1]; 600 mg, Day 10, n = 4, read-out: AUC0-12) was 11900 ng·h/mL. The Cmax ([1]; 600 mg, Day −7, n = 4) was 2210 ng/mL, the Tmax ([1]; 600 mg, Day −7, n = 4) was 1.8 h and the AUC(0-t) ([1]; 600 mg, Day −7, n = 4, read-out: AUC0-12) was 11800 ng·h/mL. The AUC(0-t) ([1]; 600 mg, Day −7, n = 4, read-out: AUC0-24) was 15100 ng·h/mL, the half-life ([1]; 20 mg, Day −7, n = 8-10) was 4.09 h and the half-life ([1]; 40 mg, Day −7, n = 6) was 11.6 h. It also gave a half-life ([1]; 80 mg, Day −7, n = 3) of 11.3 h, a half-life ([1]; 150 mg, Day −7, n = 4) of 12.7 h and a half-life ([1]; 300 mg, Day −7, n = 7) of 11.8 h. The half-life ([1]; 500 mg, Day −7, n = 29) was 11.8 h, the half-life ([1]; 600 mg, Day −7, n = 4) was 11.1 h and the “inhibitor of Chk1” value (Chk1) was “potent and selective inhibitor of Chk1”.
